± gives the expanded uncertainty stated by the source.
What was measured:
[1] = xn = mol fraction of the nth substance listed; settings: 97.1 kPa, Liquid, Vibrating tube method
[2] = relative permittivity at various frequencies (dimensionless); xn = mol fraction of the nth substance listed; settings: 97.1 kPa, Liquid, Frequency=1 MHz, Parallel plate capacitor

COCCOC [1,2-dimethoxyethane] + CCCCCCCC
Settings | mass density, [1] [kg/m3] | relative permittivity, [2]
288.15 K, x2 = 0 | 872.06 ± 1 | 7.41 ± 0.07
288.15 K, x2 = 0.0493 | 857.73 ± 1 | –
288.15 K, x2 = 0.0502 | – | 6.79 ± 0.07
288.15 K, x2 = 0.1011 | 843.79 ± 1 | –
288.15 K, x2 = 0.1035 | – | 6.21 ± 0.06
288.15 K, x2 = 0.2005 | – | 5.31 ± 0.05
288.15 K, x2 = 0.2032 | 819.39 ± 1 | –
288.15 K, x2 = 0.3015 | – | 4.54 ± 0.05
288.15 K, x2 = 0.3036 | 798.48 ± 1 | –
288.15 K, x2 = 0.4019 | 780.49 ± 1 | –
288.15 K, x2 = 0.4024 | – | 3.92 ± 0.04
288.15 K, x2 = 0.4964 | – | 3.45 ± 0.03
288.15 K, x2 = 0.4992 | 764.69 ± 1 | –
288.15 K, x2 = 0.6022 | – | 3.01 ± 0.03
288.15 K, x2 = 0.6046 | 749.52 ± 1 | –
288.15 K, x2 = 0.7031 | – | 2.67 ± 0.03
288.15 K, x2 = 0.707 | 736.47 ± 1 | –
288.15 K, x2 = 0.8035 | – | 2.38 ± 0.02
288.15 K, x2 = 0.8044 | 725.4 ± 1 | –
288.15 K, x2 = 0.9038 | – | 2.15 ± 0.02
288.15 K, x2 = 0.9082 | 714.88 ± 1 | –
288.15 K, x2 = 0.9495 | 711.04 ± 1 | –
288.15 K, x2 = 0.9511 | – | 2.06 ± 0.02
298.15 K, x2 = 0 | 861.17 ± 1 | 7.07 ± 0.07
298.15 K, x2 = 0.0487 | – | 6.5 ± 0.07
298.15 K, x2 = 0.0493 | 847.03 ± 1 | –
298.15 K, x2 = 0.1004 | – | 5.97 ± 0.06
298.15 K, x2 = 0.1011 | 833.26 ± 1 | –
298.15 K, x2 = 0.2032 | 809.21 ± 1 | –
298.15 K, x2 = 0.204 | – | 5.07 ± 0.05
298.15 K, x2 = 0.3008 | – | 4.39 ± 0.04
298.15 K, x2 = 0.3036 | 788.62 ± 1 | –
298.15 K, x2 = 0.4019 | 770.94 ± 1 | –
298.15 K, x2 = 0.4064 | – | 3.78 ± 0.04
298.15 K, x2 = 0.4992 | 755.41 ± 1 | –
298.15 K, x2 = 0.5043 | – | 3.32 ± 0.03
298.15 K, x2 = 0.6046 | 740.56 ± 1 | 2.93 ± 0.03
298.15 K, x2 = 0.7038 | – | 2.62 ± 0.03
298.15 K, x2 = 0.707 | 727.79 ± 1 | –
298.15 K, x2 = 0.8039 | – | 2.35 ± 0.02
298.15 K, x2 = 0.8044 | 716.95 ± 1 | –
298.15 K, x2 = 0.9008 | – | 2.14 ± 0.02
298.15 K, x2 = 0.9082 | 706.67 ± 1 | –
298.15 K, x2 = 0.9495 | 702.91 ± 1 | –
298.15 K, x2 = 0.9516 | – | 2.04 ± 0.02
308.15 K, x2 = 0 | 850.13 ± 1 | 6.75 ± 0.07
308.15 K, x2 = 0.0493 | 836.17 ± 1 | –
308.15 K, x2 = 0.0513 | – | 6.2 ± 0.06
308.15 K, x2 = 0.1011 | 822.58 ± 1 | –
308.15 K, x2 = 0.1017 | – | 5.71 ± 0.06
308.15 K, x2 = 0.203 | – | 4.88 ± 0.05
308.15 K, x2 = 0.2032 | 798.9 ± 1 | –
308.15 K, x2 = 0.3025 | – | 4.23 ± 0.04
308.15 K, x2 = 0.3036 | 778.63 ± 1 | –
308.15 K, x2 = 0.4019 | 761.25 ± 1 | –
308.15 K, x2 = 0.4021 | – | 3.69 ± 0.04
308.15 K, x2 = 0.4992 | 746.01 ± 1 | –
308.15 K, x2 = 0.5006 | – | 3.25 ± 0.03
308.15 K, x2 = 0.6029 | – | 2.87 ± 0.03
308.15 K, x2 = 0.6046 | 731.48 ± 1 | –
308.15 K, x2 = 0.7028 | – | 2.57 ± 0.03
308.15 K, x2 = 0.707 | 718.98 ± 1 | –
308.15 K, x2 = 0.802 | – | 2.32 ± 0.02
308.15 K, x2 = 0.8044 | 708.4 ± 1 | –
308.15 K, x2 = 0.9027 | – | 2.11 ± 0.02
308.15 K, x2 = 0.9082 | 698.35 ± 1 | –
308.15 K, x2 = 0.9493 | – | 2.03 ± 0.02
308.15 K, x2 = 0.9495 | 694.71 ± 1 | –
